Data as given in patent US20250026741A1, “INHIBITORS OF THE ONCOGENIC SHP2 PHOSPHATASE AND USES THEREOF” (Sanford Burnham Prebys Medical Discovery Institute, priority 2021, published 2025).

Tested on: p-ERK1/2 in MOLM-13 AML cells
Assay: Phospho-ERK1/2 immunoblot analysis, MOLM-13
Format: cell-based
Conditions: #02 3, 10, 30 μM, RMC-4550 1 μM
Experimental: Because SHP2 activity is critical for ERK activation, we used phospho-ERK1/2 (p-ERK1/2) as a more direct readout of SHP2 inhibitor efficacy. […] However, a greater effect of #02 was observed after 24 h treatment. […] This p-ERK rebound in MOLM-13 cells treated with RMC-4550 is reminiscent of previously reported data from human hepatoma Hep3B cells treated with SHP099.
Total protein extracts were prepared in modified RIPA lysis buffer (25 mM Tris-HCl, pH 7.4, 10% glycerol, 0.2% Triton™ X-100, 150 mM NaCl, 2 mM Na3VO4, 1 mM EDTA) containing a protease inhibitor cocktail (Roche Applied Science, Indianapolis, IN). Equal amounts of protein were separated on 4-12% (p-ERK1/2 blots) or 4-20% (SHP2 blots) Bis-Tris gels by SDS-PAGE and transferred to nitrocellulose (p-ERK1/2 blots) or 0.2 μm PVDF (SHP2 blots) membranes. Membranes were blocked in 5% dry milk (Bio-Rad, Hercules, CA) in TBS-Tween 20 (0.1% vol/vol; TBS-T) for 1 h at room temperature. Protein-bound membranes were incubated with indicated primary antibody overnight at 4° C. After washing three times with TBS-T, membranes were incubated for 1 h with horseradish peroxidase-conjugated secondary antibody, then visualized by an ECL Prime detection system (GE Healthcare). Immunoblotting experiments were carried out at least three times and representative images are shown. Densitometric quantitation of immunoblots was performed using Image Studio Lite Software. Changes of phosphorylated ERK1/2 to total ERK1/2 rations are expressed as percentage of the vehicle-treated controls. The following antibodies were used: Phospho-Erk1/2 Ab, Cell Signaling, #9101S; total Erk1/2 Ab, Cell Signaling, #9102S; SHP2 Ab, Bethyl, A301-544A, lot #1; GAPDH (14C10) mAb, Cell Signaling, #2118S, lot #14.

## O=C(Nc1ccccc1)c1cc(-c2ccc(/C=C3\Sc4ccccc4C3=O)o2)ccc1O [#02, (Z)-2-hydroxy-5-(5-((3-oxobenzo[b]thiophen-2(3H)-ylidene)methyl)furan-2-yl)-N-phenylbenzamide]
MOLM-13, 3 h treatment
  ERK1/2 activation (p-ERK1/2 levels): dose-dependently inhibits ERK1/2 activation
MOLM-13, 24 h treatment
  ERK1/2 activation (p-ERK1/2 levels): dose-dependently inhibits ERK1/2 activation
